Legend:
mAb CHO-131 = assay: Glycan microarray analysis (Consortium for Functional Glycomics, printed array version 4.0), glycan binding of mAb CHO-131; details: for RFU: mAb CHO-131 at 50 μg/ml, average RFU of 6 replicates after removal of highest and lowest values
Procedure: (§1) mAb CHO-131 was purchased from R&D Systems (MAB996). mAb CSLEX was purchased form BD Biosciences (551344). Glycan microarray analysis was carried out by the Consortium for Functional Glycomics. Glycan microarrays were printed as described (Blixt 2004). Version 4.0 of the printed glycan array was used for analysis. Binding analysis was performed at 50 μg/ml of antibody. Data are reported as average RFU of 6 replicates after removal of highest and lowest values.

mAb CSLEX = assay: Glycan microarray analysis (Consortium for Functional Glycomics, printed array version 4.0), glycan binding of mAb CSLEX; details: mAb CSLEX at 50 μg/ml; average RFU of 6 replicates after removal of highest and lowest values
Procedure: as §1

SMILES	RFU (mAb CHO-131) [RFU]	RFU (mAb CSLEX) [RFU]	also measured
CC(=O)N[C@H]1[C@H](OCCCN)O[C@H](CO)[C@@H](O)[C@@H]1O[C@@H]1O[C@H](C(=O)O)[C@@H](O)[C@H](O)[C@H]1O [Chart Number 299, GlcAb1-3GlcNAcb-Sp8, reference compound]	–	–	binding to CHO-131 antibody, in words (mAb CHO-131; glycan microarray, as described): some binding
NCCCO[C@@H]1O[C@H](COS(=O)(=O)O)[C@@H](O[C@@H]2O[C@H](CO)[C@H](O)[C@H](OS(=O)(=O)O)[C@H]2O)[C@H](O)[C@H]1O [compound 25]	903	–	–
CC(=O)N[C@H]1[C@H](OCCN)O[C@H](COS(=O)(=O)O)[C@@H](O[C@@H]2O[C@H](CO)[C@H](O)[C@H](OS(=O)(=O)O)[C@H]2O)[C@@H]1O [compound 31]	266	–	–
CC(=O)N[C@H]1[C@H](OCCCN)O[C@H](COS(=O)(=O)O)[C@@H](O[C@@H]2O[C@H](CO)[C@H](O)[C@H](OS(=O)(=O)O)[C@H]2O)[C@@H]1O [compound 32]	584	–	–
NCCCO[C@@H]1O[C@H](CO)[C@H](O)[C@H](OS(=O)(=O)O)[C@H]1O [compound 35]	345	–	–
CC(=O)N[C@H]1[C@H](OCCN)O[C@H](CO)[C@@H](O[C@@H]2O[C@H](COS(=O)(=O)O)[C@H](OS(=O)(=O)O)[C@H](O)[C@H]2O)[C@@H]1O [compound 36]	427	–	–
NCCCO[C@@H]1O[C@H](COS(=O)(=O)O)[C@@H](O[C@@H]2O[C@H](COS(=O)(=O)O)[C@H](O)[C@H](O)[C@H]2O)[C@H](O)[C@H]1O [compound 42]	505	–	–
CC(=O)N[C@H]1[C@H](OCCN)O[C@H](CO)[C@@H](O[C@@H]2O[C@H](CO)[C@H](O)[C@H](O[C@H]3O[C@H](CO)[C@H](O)[C@H](O)[C@H]3NC(C)=O)[C@H]2O[C@@H]2O[C@@H](C)[C@@H](O)[C@@H](O)[C@@H]2O)[C@@H]1O [compound 82]	–	30	–
CC(=O)N[C@H]1[C@H](O[C@H]2[C@@H](O)[C@@H](CO)O[C@H](OCCCN)[C@@H]2NC(C)=O)O[C@H](CO)[C@H](O)[C@@H]1O [compound 91]	–	56	–
CC(=O)NC1C(O)CC(OC2C(O)C(OC3C(CO)OC(OCCN)C(O)C3O)OC(CO)C2OC2OC(CO)C(O)C(OC3OC(CO)C(O)C(O)C3O)C2NC(C)=O)(C(=O)O)OC1C(O)C(O)CO (stereo not shown) [compound 135]	–	28	–
CC(=O)N[C@H]1[C@H](O[C@@H]2[C@H](O)[C@@H](O)[C@H](O[C@H]3[C@H](O)[C@@H](O)[C@H](OCCCN)O[C@@H]3CO)O[C@@H]2CO)O[C@H](CO)[C@H](O)[C@@H]1O[C@@H]1O[C@H](CO)[C@H](O)[C@H](O)[C@H]1O [compound 136]	–	58	–
NCCCO[C@@H]1O[C@H](CO)[C@H](O)[C@H](O[C@@H]2O[C@H](CO)[C@H](O)[C@H](O)[C@H]2O)[C@H]1O [compound 137]	–	37	–
CC(=O)N[C@H]1[C@H](O[C@@H]2[C@H](O)[C@@H](O)[C@H](O[C@H]3[C@H](O[C@@H]4O[C@@H](C)[C@@H](O)[C@@H](O)[C@@H]4O)[C@@H](NC(C)=O)[C@H](OCCN)O[C@@H]3CO)O[C@@H]2CO)O[C@H](CO)[C@@H](O[C@@H]2O[C@H](CO)[C@H](O)[C@H](O)[C@H]2O)[C@@H]1O[C@@H]1O[C@@H](C)[C@@H](O)[C@@H](O)[C@@H]1O [compound 144]	–	28	–
NCCO[C@@H]1O[C@H](COS(=O)(=O)O)[C@@H](O[C@@H]2O[C@H](CO)[C@H](O)[C@H](O)[C@H]2O)[C@H](O)[C@H]1O [compound 146]	148	–	–
CC(=O)N[C@H]1[C@H](O[C@H]2[C@@H](O)[C@@H](CO)O[C@@H](O[C@H]3[C@H](O)[C@@H](O)[C@H](OCCN)O[C@@H]3CO)[C@@H]2O)O[C@H](CO)[C@@H](O[C@@H]2O[C@H](CO)[C@H](O)[C@H](O)[C@H]2O)[C@@H]1O [compound 155]	–	29	–
CC(=O)N[C@H]1[C@H](OCCCN)O[C@H](CO)[C@@H](O[C@@H]2O[C@H](CO)[C@H](O)[C@H](O)[C@H]2O)[C@@H]1O [compound 161]	–	34	–
CC(=O)N[C@H]1[C@H](O[C@H]2[C@@H](O)[C@@H](CO)O[C@@H](OCCCN)[C@@H]2O)O[C@H](CO)[C@@H](O)[C@@H]1O [compound 171]	–	106	–
CC(=O)N[C@H]1[C@@H](OCCCN)O[C@H](CO[C@@H]2O[C@H](CO)[C@@H](O)[C@H](O)[C@H]2NC(C)=O)[C@H](O[C@@H]2O[C@H](CO)[C@@H](O)[C@H](O)[C@H]2NC(C)=O)[C@@H]1O [compound 177]	–	29	–
CC(=O)N[C@H]1[C@H](OCCCN)O[C@H](CO)[C@@H](O[C@@H]2O[C@H](CO)[C@H](O[C@@H]3O[C@H](CO)[C@@H](O)[C@H](O)[C@H]3NC(C)=O)[C@H](O)[C@H]2O)[C@@H]1O [compound 178]	–	33	–

SMILES	RFU (mAb CHO-131) [RFU]	RFU (mAb CSLEX) [RFU]	also measured
NCCCO[C@@H]1O[C@H](CO[C@@H]2O[C@H](CO)[C@@H](O)[C@H](O)[C@H]2O)[C@@H](O)[C@H](O)[C@H]1O [compound 190]	–	28	–
NCCCO[C@H]1O[C@H](C(=O)O)[C@@H](O)[C@H](O)[C@H]1O [compound 192]	227	–	–
NCCCO[C@@H]1O[C@H](C(=O)O)[C@@H](O)[C@H](O)[C@H]1O [compound 193]	274	–	–
CC(=O)N[C@H]1C(OCCCN)O[C@H](COS(=O)(=O)O)[C@@H](O[C@@H]2O[C@H](CO)[C@H](O)[C@H](OS(=O)(=O)O)[C@H]2O)[C@@H]1O[C@@H]1O[C@@H](C)[C@@H](O)[C@@H](O)[C@@H]1O (stereo partly shown) [compound 210]	403	–	–
C[C@@H]1O[C@@H](O[C@H]2[C@H](O[C@H]3[C@H](O)[C@@H](O)C(OCCN)O[C@@H]3COS(=O)(=O)O)O[C@H](COS(=O)(=O)O)[C@H](O)[C@@H]2O)[C@@H](O)[C@H](O)[C@@H]1O (stereo partly shown) [compound 213]	1100	–	–
CC(=O)N[C@H]1[C@H](O[C@@H]2[C@H](O[C@]3(C(=O)O)C[C@H](O)[C@@H](NC(C)=O)[C@H]([C@H](O)[C@@H](CO)O[C@]4(C(=O)O)C[C@H](O)[C@@H](NC(C)=O)[C@H]([C@H](O)[C@@H](CO)O[C@]5(C(=O)O)C[C@H](O)[C@@H](NC(C)=O)[C@H]([C@H](O)[C@@H](CO)O[C@]6(C(=O)O)C[C@H](O)[C@@H](NC(C)=O)[C@H]([C@H](O)[C@H](O)CO)O6)O5)O4)O3)[C@@H](O)[C@H](O[C@H]3[C@H](O)[C@@H](O)[C@H](OCCN)O[C@@H]3CO)O[C@@H]2CO)O[C@H](CO)[C@H](O)[C@@H]1O [compound 215]	–	53	–
CC(=O)N[C@H]1[C@H](OCCCN)O[C@H](COS(=O)(=O)O)[C@@H](O[C@@H]2O[C@H](CO)[C@H](O)[C@H](O[C@]3(C(=O)O)C[C@H](O)[C@@H](NC(C)=O)[C@H]([C@H](O)[C@H](O)CO)O3)[C@H]2O)[C@@H]1O[C@@H]1O[C@@H](C)[C@@H](O)[C@@H](O)[C@@H]1O [compound 241]	256	–	–
CC(=O)N[C@H]1[C@H](OCCCN)O[C@H](COS(=O)(=O)O)[C@@H](O[C@@H]2O[C@H](CO[C@]3(C(=O)O)C[C@H](O)[C@@H](NC(C)=O)[C@H]([C@H](O)[C@H](O)CO)O3)[C@H](O)[C@H](O)[C@H]2O)[C@@H]1O [compound 256]	243	–	–
CC(=O)N[C@H]1[C@H](OCCN)O[C@H](CO)[C@@H](O[C@@H]2O[C@H](CO[C@]3(C(=O)O)C[C@H](O)[C@@H](NC(C)=O)[C@H]([C@H](O)[C@H](O)CO)O3)[C@H](O)[C@H](O)[C@H]2O)[C@@H]1O [compound 257]	–	424	–
CC(=O)N[C@H]1[C@H]([C@H](O)[C@H](O)CO)O[C@@](OC[C@H]2O[C@@H](O[C@H]3[C@H](O)[C@@H](O)[C@H](OCCN)O[C@@H]3CO)[C@H](O)[C@@H](O)[C@H]2O)(C(=O)O)C[C@@H]1O [compound 261]	–	45	–
CC(=O)N[C@H]1[C@H](O[C@H]2[C@@H](O)[C@@H](CO)O[C@@H](O[C@@H]3[C@@H](NC(C)=O)[C@H](OCCN)O[C@H](CO)[C@H]3O[C@@H]3O[C@@H](C)[C@@H](O)[C@@H](O)[C@@H]3O)[C@@H]2O)O[C@H](CO)[C@@H](O[C@@H]2O[C@@H](C)[C@@H](O)[C@@H](O)[C@@H]2O)[C@@H]1O[C@@H]1O[C@H](CO)[C@H](O)[C@H](O)[C@H]1O [compound 266]	–	29	–
CC(=O)NC1C(OCCCN)OC(COC2(C(=O)O)CC(O)C(NC(C)=O)C(C(O)C(O)CO)O2)C(O)C1O (stereo not shown) [compound 267]	–	29	–
C[C@@H]1O[C@@H](O[C@H]2[C@H](O[C@@H]3O[C@H](CO)[C@H](O)[C@H](O)[C@H]3O)[C@@H](COS(=O)(=O)O)OC(OCCN)[C@@H]2O)[C@@H](O)[C@H](O)[C@@H]1O (stereo partly shown) [compound 281]	138	–	–
CC(=O)N[C@H]1[C@H](OCCCN)O[C@H](CO)[C@@H](O[C@@H]2O[C@H](CO)[C@H](O)[C@H](O[C@@H]3O[C@H](CO)[C@H](O)[C@H](O)[C@H]3O)[C@H]2O)[C@@H]1O [compound 291]	–	46	–
CC(=O)N[C@H]1[C@H](OCCN)O[C@H](CO)[C@@H](O[C@@H]2O[C@H](CO[C@H]3O[C@H](CO)[C@@H](O[C@@H]4O[C@H](CO)[C@H](O)[C@H](O)[C@H]4O)[C@H](O)[C@H]3NC(C)=O)[C@H](O)[C@H](O)[C@H]2O)[C@@H]1O [compound 295]	–	30	–
CC(=O)N[C@H]1[C@H](OCCN)O[C@H](CO)[C@@H](O[C@@H]2O[C@H](CO)[C@H](O)[C@H](O[C@]3(C(=O)O)C[C@H](O)[C@@H](NC(C)=O)[C@H]([C@H](O)[C@H](O)COC(C)=O)O3)[C@H]2O)[C@@H]1O [compound 323]	271	–	–
CC(=O)N[C@H]1[C@H](OCCN)O[C@H](CO)[C@@H](O[C@@H]2O[C@H](CO)[C@H](O)[C@H](O[C@@H]3O[C@H](COS(=O)(=O)O)[C@@H](O)[C@H](O)[C@H]3NC(C)=O)[C@H]2O)[C@@H]1O [compound 351]	138	–	–
CC(=O)N[C@H]1C(OCCN)O[C@H](COS(=O)(=O)O)[C@@H](O)[C@@H]1O[C@@H]1O[C@H](COS(=O)(=O)O)[C@H](O)[C@H](O)[C@H]1O (stereo partly shown) [compound 440]	1773	–	–

Reference: patent publication US20120202701A1, “AN ANTIBODY-GLYCAN COMPLEX TARGETING THE DISIALYL CORE II AND SIALYL LEWIS X STRUCTURES, AND USES THEREOF INVOLVING ANALYSIS OF STEM CELLS OR CANCER CELLS” (GLYKOS FINLAND OY, priority 2009, published 2012)
